# Experimental data as given in patent publication US20030162759A1, “Aldosterone blocker therapy to prevent or treat inflammation-related disorders” (priority 2000, published 2003).
# Several values for one entry are separate records, joined by “and”; a condition that tells them apart may be missing. Identical values can stand only once. Entries after “also recorded” stand apart in the source; their conditions may differ.
# Key:
# [1] = system: aldosterone + salt treated rats; assay: Assay C further aldosterone infusion study: radiotelemetrized systolic blood pressure; assay type: in vivo, rat
# From the text: Assay C: Further in vivo Aldosterone Infusion Study The procedure of Assay B was expanded upon in a further study. […] Myocardial tissue from animals in each treatment group was examined after 7, 14, or 30 days of treatment. […] Lesions were preceded by the expression and progressive upregulation of proinflammatory molecules. […] Male Sprague-Dawley rats, weighing 230 to 250 g, (Harlan Sprague-Dawley Industries, Indianapolis, Ind.) were housed in a room 12-hours light/12-hours dark daily cycle at an ambient temperature of 22±1° C. (n=96). Animals were allowed one week to adjust after arrival and had free access to TEKLAD 22/5 rodent diet (Harlan TEKLAD, Madison, Wis.) and tap water until the initiation of the experiment. Prior to surgery the animals were individually weighed and placed in one of the following groups: […] Potassium chloride supplementation was added to the saline solution in order to prevent the potential hypokalemia associated with aldosterone excess. […] Louis, Mo.) was inserted subcutaneously at the nape of the neck. Aldosterone was administered at a dose of […]. […] Animals were sacrificed from each group (n=8-13) after 7, 14, or 30 days of treatment. Animals to be sacrificed after 7 or 14 days of treatment were uninephrectomized and implanted with an Alzet minipump. Animals treated for 30 days were uninephrectomized, fitted for Alzet minipumps, and implanted with radio telemetry units (model#TA11PA-C40, Data Sciences Inc., St. Paul, Minn.) according to the following procedure. […] The surgery site was clipped, scrubbed with nolvasan, and sprayed with betadine. A rostral-caudal incision was made through the skin from the base of the rib cage to the pubic region using a #11 scalpel blade. A second incision was made through the muscles of the abdominal wall to expose the peritoneal cavity. […] Organs were carefully displaced with tissue retractors in order to expose the abdominal aorta. A 1.5 cm segment just rostral to the bifurcation of the abdominal aorta into the iliac arteries was cleared of excessive connective tissue and 4-0 silk was used to make an anchor adjacent to the aorta. A microvascular clip was then placed at both ends of the cleaned region to stop excessive blood flow. Using a bent, 21 gauge needle, the abdominal aorta was penetrated. The cannula of the radio telemetry unit was inserted and stabilized in the aorta using the 4-0 silk anchor. Organs were repositioned and the telemetry unit was placed over the organs. Using a non-interrupted suture pattern with 4-0 silk, the abdominal wall was closed, and the skin was subsequently closed using a 4-0 silk in an interrupted suture pattern. […] Post-operative care included monitoring the animals on a heating pad during recovery from anesthesia until sternal recumbency was reestablished. Radiotelemetrized arterial blood pressure was calculated with the […] Version 1.1-Gold software (Data Sciences International, St. Paul, Minn.). Data points were collected over a 24 hour period with the collection rate set for a 10 second reading every 5 min for each animal. The 24 hour period used was from 6:00 a.m. to 6:00 a.m.
# [2] = system: Monocyte Chemoattractant Protein-1 (MCP-1); assay: Assay C: MCP-1 relative mRNA expression in heart (TaqMan); assay type: in vivo, rat; settings: for MCP1, Mean / MCP1: mRNA; for MCP1, Mean: group mean; for MCP1: individual rats; for MCP-1 mRNA expression in myocardium: time course 7, 14, 30 days, eplerenone 100 mg/kg/day
# Method: The procedure of Assay B was expanded upon in a further study. […] Myocardial tissue from animals in each treatment group was examined after 7, 14, or 30 days of treatment.
# Potassium chloride supplementation was added to the saline solution in order to prevent the potential hypokalemia associated with aldosterone excess.
# At the time of the surgery, an Alzet 2002 osmotic minipump (Alza Corp., Palo Alto, Calif.) containing either vehicle (9% ethanol/87% propylene glycol/4% dH2O) or 1.0 mg/mL d-aldosterone (Sigma Chemical, St. Louis, Mo.) was inserted subcutaneously at the nape of the neck. Aldosterone was administered at a dose of 0.75 g/hour. […] Animals were sacrificed from each group (n=8-13) after 7, 14, or 30 days of treatment.
# The fluorogenic 5′-nuclease assay (TaqMan PCR) using Applied Biosystems' 7700 Sequence Detection System (Applied Biosystems, Foster City, Calif.) allowed for real time detection/quantitation of a specific gene by monitoring the increase in fluorescence of a gene-specific, dye-labeled oligonucleotide probe. Probes for target and reference genes were labeled at the 5′-end with a 6-carboxyfluorescein (6FAM) reporter dye and at the 3′-end with a 6-carboxy-N,N,N′,N′-tetramethylrhodamine (TAMRA) quencher dye. When the probe was annealed to the target gene, fluorescence of 6FAM was prevented by the close proximity of TAMRA. The exonuclease activity of Taq polymerase released the dyes from the oligonucleotide probe by displacing the probe from the target sequence resulting in fluorescence excitation in direct proportion to the amount of target message present. Data analysis was performed using the Sequence Detection System software from Applied Biosystems.
# All primers and probes were designed using Primer Express software supplied with the 7700 Sequence Detection System and synthesized by Applied Biosystems. Standard curves using 5-fold dilutions of total RNA (from 200 ng to 320 pg) were performed to determine the efficiency of each primer/probe set in the TaqMan reaction prior to the analysis of the experimental samples. Primer/probe sets were designed from known sequences of rat genes to be analyzed. All target gene values were normalized to a reference gene, constitutively expressed cyclophilin. Primer/probe set sequences can be found in Table 8.
# RNA was extracted from frozen (−80° C.) rat heart tissue using the Totally RNA Isolation Kit (Ambion, Inc., Austin, Tex.). Tissue was crushed using a stainless steel mortar and pestle, which had been chilled to −80° C. and transferred to a dounce homogenizer (Kontes, Vineland, N.J.) containing 3-10 mL cold denaturation buffer. Tissue was homogenized and transferred to a sterile, 15 mL polypropylene centrifuge tube. An equal volume of phenol:chloroform:isoamyl alcohol (25:24:1) was added, samples were shaken vigorously for 1 min, and incubated on ice for at least 15 min. Samples were centrifuged for 30 min at 10,000 g. The aqueous phase was removed, 1/10 volume of a sodium acetate solution (3.0 M NaOAc pH 4.5) was added, samples were shaken or inverted for 10 seconds, and acid-phenol (premixed with isoamyl alcohol):chloroform (5:1, Ambion, Inc.) was added at an volume equivalent to the starting sample volume. Samples were shaken vigorously for 1 min, followed by a 15-min incubation on ice, and centrifuged for 30 min at 10,000 g. The aqueous phase removed and placed in a clean polypropylene tube. An equal volume of isopropanol (Sigma, St. Louis, Mo.) was added and the samples were mixed and incubated overnight at −20° C. The samples were centrifuged for 30 min at 10,000 g, the supernatant was removed and the RNA pellet was resuspended in DNAse/RNAse-free water. Samples were frozen at −80° C. for at least 2 hours, thawed on wet ice, and diluted for quantitation.
smiles,measurement,setting,value
"COC(=O)[C@@H]1CC2=CC(=O)CC[C@]2(C)[C@@]23O[C@@H]2C[C@@]2(C)[C@@H](CC[C@@]24CCC(=O)O4)[C@H]13 [eplerenone, Pregn-4-ene-7,21-dicarboxylic acid, 9,11-epoxy-17-hydroxy-3-oxo-, γ-lactone, methyl ester, (7α, 11α, 17β) -]",Systolic Blood Pressure,"[1]; uninephrectomized Sprague-Dawley rats, 1% NaCl-0.3% KCl, aldosterone infusion, eplerenone 100 mg/kg/day, up to 30 days",significantly reduced
same,Systolic Blood Pressure,"[1]; uninephrectomized Sprague-Dawley rats, 1% NaCl-0.3% KCl, aldosterone infusion, eplerenone 100 mg/kg/day, up to 30 days, listed as eplerenone+aldosterone+salt",significantly reduced at days 8-30
same,"MCP1, Mean",[2]; 7 days of treatment,1.56 AU
same,"MCP1, Mean",[2]; 30 days of treatment,2.29 AU
same,MCP1,"[2]; 7 days of treatment, listed as Eplerenone + aldosterone + salt",1.60 AU and 0.85 AU and 0.83 AU and 0.67 AU
same,MCP1,"[2]; 14 days of treatment, listed as Eplerenone + aldosterone + salt",1.60 AU and 1.20 AU
same,MCP1,"[2]; 30 days of treatment, listed as Eplerenone + aldosterone + salt",1.70 AU and 2.10 AU
same,MCP-1 mRNA expression in myocardium,[2],significantly reduced; also recorded: inhibition of early time-course expression of myocardial MCP-1
C[C@]12CCC(=O)C=C1CC[C@@H]1[C@@H]2[C@@H](O)C[C@]2(C=O)[C@@H](C(=O)CO)CC[C@@H]12 [aldosterone],Systolic Blood Pressure,"[1]; Day 3, mean ± SEM of values every 5 min over 24-hour period",132 ± 6 mmHg
same,Systolic Blood Pressure,"[1]; Day 5, mean ± SEM of values every 5 min over 24-hour period",137 ± 4 mmHg
same,Systolic Blood Pressure,"[1]; Day 6, mean ± SEM of values every 5 min over 24-hour period",148 ± 5 mmHg
same,Systolic Blood Pressure,"[1]; Day 7, mean ± SEM of values every 5 min over 24-hour period",155 ± 5 mmHg
same,Systolic Blood Pressure,"[1]; Day 8, mean ± SEM of values every 5 min over 24-hour period",156 ± 4 mmHg
same,Systolic Blood Pressure,"[1]; Day 9, mean ± SEM of values every 5 min over 24-hour period",164 ± 5 mmHg
same,Systolic Blood Pressure,"[1]; Day 11, mean ± SEM of values every 5 min over 24-hour period",171 ± 6 mmHg
same,Systolic Blood Pressure,"[1]; Day 12, mean ± SEM of values every 5 min over 24-hour period",178 ± 6 mmHg
same,Systolic Blood Pressure,"[1]; Day 13, mean ± SEM of values every 5 min over 24-hour period",182 ± 6 mmHg
same,Systolic Blood Pressure,"[1]; Day 15, mean ± SEM of values every 5 min over 24-hour period",181 ± 5 mmHg
same,Systolic Blood Pressure,"[1]; Day 16, mean ± SEM of values every 5 min over 24-hour period",187 ± 6 mmHg
same,Systolic Blood Pressure,"[1]; Day 17, mean ± SEM of values every 5 min over 24-hour period",195 ± 7 mmHg
same,Systolic Blood Pressure,"[1]; Day 18, mean ± SEM of values every 5 min over 24-hour period",196 ± 6 mmHg
same,Systolic Blood Pressure,"[1]; Day 19, mean ± SEM of values every 5 min over 24-hour period",200 ± 6 mmHg
same,Systolic Blood Pressure,"[1]; Day 20, mean ± SEM of values every 5 min over 24-hour period",203 ± 5 mmHg
same,Systolic Blood Pressure,"[1]; Day 21, mean ± SEM of values every 5 min over 24-hour period",208 ± 4 mmHg
same,Systolic Blood Pressure,"[1]; Day 22, mean ± SEM of values every 5 min over 24-hour period",209 ± 4 mmHg
same,Systolic Blood Pressure,"[1]; Day 23, mean ± SEM of values every 5 min over 24-hour period",208 ± 4 mmHg
same,Systolic Blood Pressure,"[1]; Day 24, mean ± SEM of values every 5 min over 24-hour period",210 ± 3 mmHg
same,Systolic Blood Pressure,"[1]; Day 25, mean ± SEM of values every 5 min over 24-hour period",210 ± 4 mmHg
same,Systolic Blood Pressure,"[1]; Day 26, mean ± SEM of values every 5 min over 24-hour period",210 ± 3 mmHg
same,Systolic Blood Pressure,"[1]; uninephrectomized Sprague-Dawley rats, 1% NaCl-0.3% KCl, aldosterone infusion, eplerenone 100 mg/kg/day, up to 30 days, listed as Aldosterone+salt",progressive increase in blood pressure with time
same,Systolic Blood Pressure,"[1]; uninephrectomized Sprague-Dawley rats, 1% NaCl-0.3% KCl, aldosterone infusion, eplerenone 100 mg/kg/day, up to 30 days, listed as Aldosterone/salt",induced severe hypertension
same,"MCP1, Mean",[2]; 14 days of treatment,2.76 AU
same,"MCP1, Mean",[2]; 30 days of treatment,4.54 AU
same,MCP1,"[2]; 7 days of treatment, listed as Aldosterone + salt",2.40 AU
same,MCP1,"[2]; 14 days of treatment, listed as Aldosterone + salt",2.50 AU
same,MCP1,"[2]; 30 days of treatment, listed as Aldosterone + salt",2.30 AU
same,MCP-1 mRNA expression in myocardium,[2],significantly increased
